Measured values as given in patent publication US20030105595A1, “Chi square tests for gene expression” (priority 2001, published 2003).

Assays:
Experiment in all cases: multi-sample expression analysis, band intensity
Assay type in all cases: in vivo
Conditions in all cases: Pooled
[1] = test system: band b1i0_60.7
Excerpt: (§1) To practice the invention, one skilled in the art obtains a source of biological samples, as well as expression information about the biological samples, i.e., expression information relative to one or more genes or polypeptides encoded therein. Data is collected for a particular phenotype appearing within a given population under study, whereby expression of that phenotype is to be determined within the biological sample under study. The phenotype is correlated to a specific genotype, which is then represented as a band with a given intentity, thus indicative of gene expression levels, and is then compared to control samples. Alternatively, the response of a gene to dosage with one or more drugs is determined by band intensity. The standard deviation from the mean (StdDev) is calculated for the control samples, and is fit to functional form in the following equation: […]
(§2) A multi-sample expression analysis was run using the program described in Example 1. For each drug run, only runs for genes producing bands with a p-value<10^−5 in at least 2 of the following 3 comparisons were selected: low dose versus vehicle, high dose versus vehicle and low dose versus high dose. […] Since clusters found using all 13K bands included some of the best 2K bands, it was concluded that no essential signal was lost (see FIGS. 3 and 4). […] A comparison using the same analytic tests on only the best 2K bands. It can be seen that the Chi Square metric provides a better distinction between low and high doses than the correlation metric, which is not able to distinguish between the low dose and the high dose (see FIG. 6). The low-dose/high dose statistical variation is more pronounced when only the best 2K bands are selected.

[2] = test system: band b1i0_51.7
Excerpt: as §1, §2

[3] = test system: band b1i0_54.5
Excerpt: as §1, §2

[4] = test system: band b1i0_57.4
Excerpt: as §1, §2

[5] = test system: band b1i0_63.7
Excerpt: as §1, §2

[6] = test system: band b1i0_53.0
Excerpt: as §1, §2

[7] = test system: band b1i0_69.4
Excerpt: as §1, §2

[8] = test system: band b1i0_62.5
Excerpt: as §1, §2

Compound: S=C=Nc1cccc2ccccc12 [ANIT]
- band intensity b1i0_60.7 ([1]; High dose, 1d): 74.32
- band intensity b1i0_60.7 ([1]; High dose, 3d): 74.89
- band intensity b1i0_60.7 ([1]; High dose, 7d): 72.63
- band intensity b1i0_60.7 ([1]; Low dose, 1d): 87.08
- band intensity b1i0_60.7 ([1]; Low dose, 3d): 67.38
- band intensity b1i0_60.7 ([1]; Low dose, 7d): 75.42
- band intensity b1i0_60.7 ([1]; Low dose, 14d): 141.7
- band intensity b1i0_51.7 ([2]; High dose, 1d): 23.54
- band intensity b1i0_51.7 ([2]; High dose, 3d): 30.1
- band intensity b1i0_51.7 ([2]; High dose, 7d): 21.57
- band intensity b1i0_51.7 ([2]; Low dose, 1d): 30.7
- band intensity b1i0_51.7 ([2]; Low dose, 3d): 22.37
- band intensity b1i0_51.7 ([2]; Low dose, 7d): 20.67
- band intensity b1i0_51.7 ([2]; Low dose, 14d): 82
- band intensity b1i0_54.5 ([3]; High dose, 1d): 102.2
- band intensity b1i0_54.5 ([3]; High dose, 3d): 114.2
- band intensity b1i0_54.5 ([3]; High dose, 7d): 95.67
- band intensity b1i0_54.5 ([3]; Low dose, 1d): 105.3
- band intensity b1i0_54.5 ([3]; Low dose, 3d): 111.3
- band intensity b1i0_54.5 ([3]; Low dose, 7d): 88.17
- band intensity b1i0_54.5 ([3]; Low dose, 14d): 33.49
- band intensity b1i0_57.4 ([4]; High dose, 1d): 1272
- band intensity b1i0_57.4 ([4]; High dose, 3d): 712.4
- band intensity b1i0_57.4 ([4]; High dose, 7d): 685.8
- band intensity b1i0_57.4 ([4]; Low dose, 1d): 1209.0048
- band intensity b1i0_57.4 ([4]; Low dose, 3d): 1266
- band intensity b1i0_57.4 ([4]; Low dose, 7d): 1303
- band intensity b1i0_57.4 ([4]; Low dose, 14d): 810.7
- band intensity b1i0_63.7 ([5]; High dose, 1d): 50.09
- band intensity b1i0_63.7 ([5]; High dose, 3d): 0.01399
- band intensity b1i0_63.7 ([5]; High dose, 7d): 147.9
- band intensity b1i0_63.7 ([5]; Low dose, 1d): 170.6
- band intensity b1i0_63.7 ([5]; Low dose, 3d): 7.245
- band intensity b1i0_63.7 ([5]; Low dose, 7d): 299.4
- band intensity b1i0_63.7 ([5]; Low dose, 14d): 9.845
- band intensity b1i0_53.0 ([6]; High dose, 1d): 99.5
- band intensity b1i0_53.0 ([6]; High dose, 3d): 84.16
- band intensity b1i0_53.0 ([6]; High dose, 7d): 106.3
- band intensity b1i0_53.0 ([6]; Low dose, 1d): 121.8
- band intensity b1i0_53.0 ([6]; Low dose, 3d): 45.02
- band intensity b1i0_53.0 ([6]; Low dose, 7d): 108.1
- band intensity b1i0_53.0 ([6]; Low dose, 14d): 54.67
- band intensity b1i0_69.4 ([7]; High dose, 1d): 208.6
- band intensity b1i0_69.4 ([7]; High dose, 3d): 284.1
- band intensity b1i0_69.4 ([7]; High dose, 7d): 271.2
- band intensity b1i0_69.4 ([7]; Low dose, 1d): 276.3
- band intensity b1i0_69.4 ([7]; Low dose, 3d): 370.5
- band intensity b1i0_69.4 ([7]; Low dose, 7d): 305.4
- band intensity b1i0_69.4 ([7]; Low dose, 14d): 748.9
- band intensity b1i0_62.5 ([8]; High dose, 1d): 49.33
- band intensity b1i0_62.5 ([8]; High dose, 3d): 93.56
- band intensity b1i0_62.5 ([8]; High dose, 7d): 81.4
- band intensity b1i0_62.5 ([8]; Low dose, 1d): 68.44
- band intensity b1i0_62.5 ([8]; Low dose, 3d): 104.9
- band intensity b1i0_62.5 ([8]; Low dose, 7d): 91.61
- band intensity b1i0_62.5 ([8]; Low dose, 14d): 249.3

Compound: O=NN(CCCl)C(=O)NCCCl [BCNU]
- band intensity b1i0_60.7 ([1]; High dose, 1d): 78.55
- band intensity b1i0_60.7 ([1]; High dose, 3d): 115.4
- band intensity b1i0_60.7 ([1]; Low dose, 1d): 88.97
- band intensity b1i0_60.7 ([1]; Low dose, 3d): 80.09
- band intensity b1i0_60.7 ([1]; Low dose, 7d): 96.79
- band intensity b1i0_51.7 ([2]; High dose, 1d): 29.61
- band intensity b1i0_51.7 ([2]; High dose, 3d): 30.97
- band intensity b1i0_51.7 ([2]; Low dose, 1d): 24.27
- band intensity b1i0_51.7 ([2]; Low dose, 3d): 21.64
- band intensity b1i0_51.7 ([2]; Low dose, 7d): 19.76
- band intensity b1i0_54.5 ([3]; High dose, 1d): 112.4
- band intensity b1i0_54.5 ([3]; High dose, 3d): 112.1
- band intensity b1i0_54.5 ([3]; Low dose, 1d): 102.8
- band intensity b1i0_54.5 ([3]; Low dose, 3d): 103.6
- band intensity b1i0_54.5 ([3]; Low dose, 7d): 108.2
- band intensity b1i0_57.4 ([4]; High dose, 1d): 1154
- band intensity b1i0_57.4 ([4]; High dose, 3d): 1296
- band intensity b1i0_57.4 ([4]; Low dose, 1d): 1235
- band intensity b1i0_57.4 ([4]; Low dose, 3d): 1367
- band intensity b1i0_57.4 ([4]; Low dose, 7d): 1345
- band intensity b1i0_63.7 ([5]; High dose, 1d): 98.18
- band intensity b1i0_63.7 ([5]; High dose, 3d): 115.1
- band intensity b1i0_63.7 ([5]; Low dose, 1d): 155.4
- band intensity b1i0_63.7 ([5]; Low dose, 3d): 104.2
- band intensity b1i0_63.7 ([5]; Low dose, 7d): 204.2
- band intensity b1i0_53.0 ([6]; High dose, 1d): 110.8
- band intensity b1i0_53.0 ([6]; High dose, 3d): 118.4
- band intensity b1i0_53.0 ([6]; Low dose, 1d): 117.1
- band intensity b1i0_53.0 ([6]; Low dose, 3d): 98.96
- band intensity b1i0_53.0 ([6]; Low dose, 7d): 104.2
- band intensity b1i0_69.4 ([7]; High dose, 1d): 194.3
- band intensity b1i0_69.4 ([7]; High dose, 3d): 219.1
- band intensity b1i0_69.4 ([7]; Low dose, 1d): 254
- band intensity b1i0_69.4 ([7]; Low dose, 3d): 292.1
- band intensity b1i0_69.4 ([7]; Low dose, 7d): 325.1
- band intensity b1i0_62.5 ([8]; High dose, 1d): 67.75
- band intensity b1i0_62.5 ([8]; High dose, 3d): 84.85
- band intensity b1i0_62.5 ([8]; Low dose, 1d): 69.48
- band intensity b1i0_62.5 ([8]; Low dose, 3d): 57.9
- band intensity b1i0_62.5 ([8]; Low dose, 7d): 82.58

Compound: Cc1cc(C(C)(C)C)c(O)c(C(C)(C)C)c1 [BHT]
- band intensity b1i0_60.7 ([1]; High dose, 1d): 71.52
- band intensity b1i0_60.7 ([1]; High dose, 3d): 70.09
- band intensity b1i0_60.7 ([1]; High dose, 7d): 62.31
- band intensity b1i0_60.7 ([1]; High dose, 14d): 68.41
- band intensity b1i0_60.7 ([1]; Low dose, 1d): 72.36
- band intensity b1i0_60.7 ([1]; Low dose, 3d): 69.13
- band intensity b1i0_60.7 ([1]; Low dose, 7d): 79.01
- band intensity b1i0_60.7 ([1]; Low dose, 14d): 90.11
- band intensity b1i0_51.7 ([2]; High dose, 1d): 24.21
- band intensity b1i0_51.7 ([2]; High dose, 3d): 25.0702
- band intensity b1i0_51.7 ([2]; High dose, 7d): 17.72
- band intensity b1i0_51.7 ([2]; High dose, 14d): 26.78
- band intensity b1i0_51.7 ([2]; Low dose, 1d): 18.78
- band intensity b1i0_51.7 ([2]; Low dose, 3d): 18.02
- band intensity b1i0_51.7 ([2]; Low dose, 7d): 12.13
- band intensity b1i0_51.7 ([2]; Low dose, 14d): 18.31
- band intensity b1i0_54.5 ([3]; High dose, 1d): 82.82
- band intensity b1i0_54.5 ([3]; High dose, 3d): 96.92
- band intensity b1i0_54.5 ([3]; High dose, 7d): 81.74
- band intensity b1i0_54.5 ([3]; High dose, 14d): 93.42
- band intensity b1i0_54.5 ([3]; Low dose, 1d): 93.97
- band intensity b1i0_54.5 ([3]; Low dose, 3d): 101.5
- band intensity b1i0_54.5 ([3]; Low dose, 7d): 92.42
- band intensity b1i0_54.5 ([3]; Low dose, 14d): 91.73
- band intensity b1i0_57.4 ([4]; High dose, 1d): 1177
- band intensity b1i0_57.4 ([4]; High dose, 3d): 1235
- band intensity b1i0_57.4 ([4]; High dose, 7d): 990.2
- band intensity b1i0_57.4 ([4]; High dose, 14d): 1049
- band intensity b1i0_57.4 ([4]; Low dose, 1d): 1182
- band intensity b1i0_57.4 ([4]; Low dose, 3d): 1224
- band intensity b1i0_57.4 ([4]; Low dose, 7d): 1156
- band intensity b1i0_57.4 ([4]; Low dose, 14d): 1229
- band intensity b1i0_63.7 ([5]; High dose, 1d): 240.7
- band intensity b1i0_63.7 ([5]; High dose, 3d): 120.1
- band intensity b1i0_63.7 ([5]; High dose, 7d): 313.4
- band intensity b1i0_63.7 ([5]; High dose, 14d): 41.88
- band intensity b1i0_63.7 ([5]; Low dose, 1d): 152.6
- band intensity b1i0_63.7 ([5]; Low dose, 3d): 171.4
- band intensity b1i0_63.7 ([5]; Low dose, 7d): 132.3
- band intensity b1i0_63.7 ([5]; Low dose, 14d): 161.6
- band intensity b1i0_53.0 ([6]; High dose, 1d): 104.3
- band intensity b1i0_53.0 ([6]; High dose, 3d): 101.7
- band intensity b1i0_53.0 ([6]; High dose, 7d): 104.1
- band intensity b1i0_53.0 ([6]; High dose, 14d): 82.87
- band intensity b1i0_53.0 ([6]; Low dose, 1d): 108.8
- band intensity b1i0_53.0 ([6]; Low dose, 3d): 87.18
- band intensity b1i0_53.0 ([6]; Low dose, 7d): 104.5
- band intensity b1i0_53.0 ([6]; Low dose, 14d): 96.38
- band intensity b1i0_69.4 ([7]; High dose, 1d): 241.7
- band intensity b1i0_69.4 ([7]; High dose, 3d): 251.2
- band intensity b1i0_69.4 ([7]; High dose, 7d): 255.9
- band intensity b1i0_69.4 ([7]; High dose, 14d): 268.8
- band intensity b1i0_69.4 ([7]; Low dose, 1d): 272.5
- band intensity b1i0_69.4 ([7]; Low dose, 3d): 190.6
- band intensity b1i0_69.4 ([7]; Low dose, 7d): 282.9
- band intensity b1i0_69.4 ([7]; Low dose, 14d): 286.5
- band intensity b1i0_62.5 ([8]; High dose, 1d): 81.06
- band intensity b1i0_62.5 ([8]; High dose, 3d): 56.24
- band intensity b1i0_62.5 ([8]; High dose, 7d): 81.59
- band intensity b1i0_62.5 ([8]; High dose, 14d): 57.74
- band intensity b1i0_62.5 ([8]; Low dose, 1d): 74.66
- band intensity b1i0_62.5 ([8]; Low dose, 3d): 70.37
- band intensity b1i0_62.5 ([8]; Low dose, 7d): 62.54
- band intensity b1i0_62.5 ([8]; Low dose, 14d): 63.7
